From patent US5849710A, “Substituted indolylmethylene-oxindole analogues as tyrosine kinase inhibitors” (Pharmacia & Upjohn S.p.A., priority 1995, dated 1998)

Columns and labels:
[1] = target: p45 v-abl tyrosine kinase; assay: in-vitro p45 v-abl kinase assay ((Val^5)-Angiotension II phosphorylation); type: biochemical, Abelson murine leukaemia virus; settings: ATP 50 μM, fixed peptide concentration, 40 ng abl-kinase, pH 8.0, 30° C.; read-out: Inhibition of p45 kinase, IC50 v-abl
Protocol: p45 v-abl Kinase Purification
The enzyme used in our test was the p45 v-abl tyrosine kinase which represents the catalytic domain of the Abelson tyrosine kinase (isolated from the Abelson murine leukaemia virus). The p45 v-abl kinase was produced and isolated as described by Wang et al. in J. Biol. Chem. 260, 64 (1985) and by Ferguson et al. in J. Biol. Chem. 260, 3652 (1985) and in Biochem. J. 257, 321 (1989).
(Val^5)-Angiotension II phosphorylation was performed by incubation with 40 ng of purified abl-kinase and (γ-^32 p)-ATP, in 50 μl of buffer containing Tris-HCl 25 mM, pH 8.0, MgCl2 10 mM and dithiothreitol 0.1 mM (kinase buffer). The reaction mixture was incubated for the indicated time at 30° C. and the reaction stopped by adding 50 μl of 5% trichloroacetic acid. After a brief incubation on ice, tubes were centrifuged. The supernatants were spotted on phosphocellulose paper squares (Whatman P-81) and washed extensively in acetic acid. The radioactivity bound to dried phosphocellulose squares was measured in a liquid scintillation counter. IC50 values were calculated from triplicated determinations of each experimental point. Each inhibitor was tested at concentrations ranging from […] in the presence of fixed concentrations of peptide (2 Mm) and ATP (50 μM). […]

[2] = tested on: K562 cells; assay: K562 cell growth inhibition assay; type: cell-based; settings: human chronic myeloid leukemia K562 cells, 72 h, cell count vs untreated control
Protocol: K562 Cell Growth Inhibition Assay
K562 cells, a human myelogenous leukemia cell line, were seeded into a 24 wells tissue culture plate (Falcon 3047) (10000/well) in the presence of increasing concentrations of the compounds. After 72 h, cells were harvested and were counted using a cell counter (Coulter Counter-ZM). The percent of inhibition was evaluated in respect to the untreated control cells.
The inhibitory activity data for a representative group of compounds according to the present invention, obtained both in the in-vitro p45 v-abl kinase assay and in the in-vivo human chronic myeloid leukemia K562 cell growth inhibition assay described above, are set out in following Table 1.

Structure (SMILES) | IC50 [1] | IC50 [2]
COc1ccc2[nH]cc(C=C3C(=O)Nc4ccc(NC(=O)[C@H](C)NC(=O)[C@@H](N)CCC(=O)O)cc43)c2c1 [FCE 28437, 5-L-glutamyl-L-alanylamino-3-[(5'-methoxy-3'-indolyl)methylene]-2-indolinone] | 0.5 µM | 14.8 µM
O=C1Nc2ccc(C(=O)CN3CCCCC3)cc2C1=Cc1c[nH]c2ccccc12 [FCE 28484, 3-(indol-3-ylmethylene)-5-(2-piperidin-1-yl-acetyl)-2-indolinone] | 0.78 µM | 4.82 µM
